Test: xn = mol fraction of the nth substance listed

CC#N + CC[NH3+].O=[N+]([O-])[O-]
Details	viscosity [mPa·s]
308.19 K, 100 kPa, x2 = 0	0.302

CC[NH2+]CC.O=[N+]([O-])[O-] + CC[NH3+].O=[N+]([O-])[O-]
101 kPa, frequency 0.00293 MHz
Details	electrical conductivity [S/m]
293.15 K, x1 = 0.0998	1.73
293.15 K, x1 = 0.3501	1.46
308.15 K, x1 = 0.0499	2.78
313.15 K, x1 = 0.1999	2.79
313.15 K, x1 = 0.3501	2.63
318.15 K, x1 = 0.0998	3.44
318.15 K, x1 = 0.1499	3.39
323.15 K, x1 = 0.1499	3.79
323.15 K, x1 = 0.1999	3.53

101 kPa
Details	viscosity [mPa·s]
293.15 K, x1 = 0.0998	43.2
298.15 K, x1 = 0.2501	38.3
308.15 K, x1 = 0.0499	27
313.15 K, x1 = 0.1999	25.1
313.15 K, x1 = 0.3501	24.9
318.15 K, x1 = 0.0998	19.7
318.15 K, x1 = 0.2998	20.3
323.15 K, x1 = 0.1499	17.9
323.15 K, x1 = 0.1999	19.1
328.15 K, x1 = 0.0998	15.3
338.15 K, x1 = 0.2998	12.2
353.15 K, x1 = 0.0998	8.96
353.15 K, x1 = 0.1499	8.99
353.15 K, x1 = 0.1999	9.7
353.15 K, x1 = 0.3501	9.47

CCCC[n+]1ccccc1.[Cl-] + CC[n+]1ccccc1.[Br-]
101 kPa
Details	viscosity [mPa·s]
388.1 K, x2 = 0.484	30
388.1 K, x2 = 0.694	23.1
393.1 K, x2 = 0.64	21.6
393.1 K, x2 = 0.797	18.11
403.1 K, x2 = 0.408	21.2
403.1 K, x2 = 0.604	17.39
408.1 K, x2 = 0.64	14.86
408.1 K, x2 = 0.797	12.97
413.1 K, x2 = 0.193	19.5
413.1 K, x2 = 0.64	13.22
413.1 K, x2 = 0.694	12.73
413.1 K, x2 = 0.797	11.67
418.1 K, x2 = 0.104	18.3
418.1 K, x2 = 0.64	11.81
418.1 K, x2 = 0.694	11.42
423.1 K, x2 = 0.313	13.73
423.1 K, x2 = 0.797	9.52
423.1 K, x2 = 0.894	8.8
428.1 K, x2 = 0.313	12.22
428.1 K, x2 = 0.604	9.82
428.1 K, x2 = 0.694	9.28
433.1 K, x2 = 0.484	9.72
433.1 K, x2 = 0.64	8.61
438.1 K, x2 = 0.604	8.04
438.1 K, x2 = 0.894	6.68
443.1 K, x2 = 0.64	7.11
443.1 K, x2 = 0.797	6.56

CN1CCCC1=O + CC[n+]1ccn(C)c1.COS(=O)(=O)[O-]
Details	viscosity [mPa·s]
313.15 K, 101 kPa, x1 = 1	1.31

CC#N + CC[n+]1ccn(C)c1.F[B-](F)(F)F
viscosity [mPa·s]
Details	303.15 K	313.15 K	323.15 K	333.15 K
100 kPa, x1 = 1	0.354	–	–	–
101 kPa, x2 = 0	0.326	0.297	0.272	0.249

CC(=O)c1ccccc1 + CC[n+]1ccn(C)c1.F[B-](F)(F)F
100 kPa
Details	viscosity [mPa·s]
293.15 K, x1 = 0.2999	19.7
293.15 K, x1 = 0.4003	16
303.15 K, x1 = 0.094	16.9
303.15 K, x1 = 0.4989	8.9
313.15 K, x1 = 0.8918	2.09
313.15 K, x1 = 0.9498	1.68
323.15 K, x1 = 0.094	9.4
323.15 K, x1 = 0.4003	6.3
323.15 K, x1 = 0.4989	4.73
333.15 K, x1 = 0.0416	9.1
333.15 K, x1 = 0.094	7.5
333.15 K, x1 = 0.4003	5
333.15 K, x1 = 0.8918	1.52
333.15 K, x1 = 0.9498	1.23
333.15 K, x1 = 1	1.09

CN(C)C=O + CC[n+]1ccn(C)c1.F[B-](F)(F)F
101 kPa, x1 = 1
Details	viscosity [mPa·s]
313.15 K	0.667
333.15 K	0.541

CCCCn1cc[n+](CCOCCOCCOCCOCC[n+]2ccn(CCCC)c2)c1.O=S(=O)([N-]S(=O)(=O)C(F)(F)F)C(F)(F)F.O=S(=O)([N-]S(=O)(=O)C(F)(F)F)C(F)(F)F + CC[n+]1ccn(C)c1.N#C[N-]C#N + O=S(=O)([N-]S(=O)(=O)C(F)(F)F)C(F)(F)F.[Li+]
100 kPa, x1 = 0.1333, x2 = 0.7621
Details	electrical conductivity [S/m]
298 K	0.835
303 K	0.94
313 K	1.17
323 K	1.52
333 K	1.8
343 K	2.06

CCCCn1cc[n+](CCOCC[n+]2ccn(CCCC)c2)c1.O=S(=O)([N-]S(=O)(=O)C(F)(F)F)C(F)(F)F.O=S(=O)([N-]S(=O)(=O)C(F)(F)F)C(F)(F)F + CC[n+]1ccn(C)c1.N#C[N-]C#N + O=S(=O)([N-]S(=O)(=O)C(F)(F)F)C(F)(F)F.[Li+]
100 kPa, x1 = 0.1503, x2 = 0.7472
Details	electrical conductivity [S/m]
298 K	0.512
303 K	0.654
313 K	0.829
323 K	1.11
333 K	1.45
343 K	1.84

C[N+]1(CCOCCOCCOCCOCC[N+]2(C)CCCC2)CCCC1.O=S(=O)([N-]S(=O)(=O)C(F)(F)F)C(F)(F)F.O=S(=O)([N-]S(=O)(=O)C(F)(F)F)C(F)(F)F + CC[n+]1ccn(C)c1.N#C[N-]C#N + O=S(=O)([N-]S(=O)(=O)C(F)(F)F)C(F)(F)F.[Li+]
100 kPa, x1 = 0.1429, x2 = 0.7537
Details	electrical conductivity [S/m]
298 K	0.47
303 K	0.56
313 K	0.77
323 K	1.08
333 K	1.34
343 K	1.63

CCOC(C)=O + CC[n+]1ccn(C)c1.O=S(=O)([N-]S(=O)(=O)C(F)(F)F)C(F)(F)F
Details	viscosity [mPa·s]
303.15 K, 100 kPa, x1 = 1	0.39

CN(C)C=O + CC[n+]1ccn(C)c1.O=S(=O)([O-])C(F)(F)F
Details	viscosity [mPa·s]
298.15 K, 100 kPa, x1 = 1	0.81

CN(C)C=O + CC[n+]1ccn(C)c1.[Cl-]
Details	viscosity [mPa·s]
288.15 K, 101 kPa, x1 = 1	0.94

CC#N + CC[n+]1ccn(C)c1C.F[B-](F)(F)F
101.3 kPa, x2 = 0
Details	viscosity [mPa·s]
293.15 K	0.361
298.15 K	0.346
303.15 K	0.332
308.15 K	0.32
313.15 K	0.309
318.15 K	0.298
323.15 K	0.288
328.15 K	0.279
333.15 K	0.271

— the CheMixHub ionic liquid set
